The values that follow come from patent US8933113B2 (Merck Sharp & Dohme Corp., priority 2011, dated 2015).

For the experiment, the target named is T1, full-length human Mineralocorticoid Receptor (MR) (Homo sapiens, UniProt P08235).
T1 construct: host or cells: PathHunter CHO-K1 cells
T1 sequence (P08235 1-984): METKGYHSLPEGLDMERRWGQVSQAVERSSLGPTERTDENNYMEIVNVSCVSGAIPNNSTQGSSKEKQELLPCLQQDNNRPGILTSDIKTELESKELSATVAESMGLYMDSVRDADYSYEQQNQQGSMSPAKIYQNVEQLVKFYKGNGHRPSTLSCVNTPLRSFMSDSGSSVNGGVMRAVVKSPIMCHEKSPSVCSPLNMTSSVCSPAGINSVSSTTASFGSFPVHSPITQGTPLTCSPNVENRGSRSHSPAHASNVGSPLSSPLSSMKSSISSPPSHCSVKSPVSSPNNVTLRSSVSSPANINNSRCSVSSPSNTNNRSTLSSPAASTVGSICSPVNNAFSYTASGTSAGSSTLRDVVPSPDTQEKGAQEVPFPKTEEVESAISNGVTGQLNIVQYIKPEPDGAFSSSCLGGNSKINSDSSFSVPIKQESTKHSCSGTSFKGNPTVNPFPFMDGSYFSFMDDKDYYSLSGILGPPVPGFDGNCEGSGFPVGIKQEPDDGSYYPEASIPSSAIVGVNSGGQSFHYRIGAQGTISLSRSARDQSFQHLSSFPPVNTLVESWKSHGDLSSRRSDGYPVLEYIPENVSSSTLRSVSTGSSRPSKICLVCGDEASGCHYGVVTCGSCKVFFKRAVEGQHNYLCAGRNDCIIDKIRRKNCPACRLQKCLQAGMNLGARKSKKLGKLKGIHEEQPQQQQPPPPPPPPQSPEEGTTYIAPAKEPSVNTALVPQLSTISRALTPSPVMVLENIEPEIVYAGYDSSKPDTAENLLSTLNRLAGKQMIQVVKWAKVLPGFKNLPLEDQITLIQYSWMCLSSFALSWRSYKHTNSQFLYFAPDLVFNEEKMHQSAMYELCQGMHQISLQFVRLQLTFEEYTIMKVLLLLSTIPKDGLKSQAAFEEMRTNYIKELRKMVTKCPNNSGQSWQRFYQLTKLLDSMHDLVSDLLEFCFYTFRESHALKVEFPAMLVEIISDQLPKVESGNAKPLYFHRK
Kind of experiment: human MR NH Pro assay (PathHunter Protein:Protein interaction assay), MR antagonist activity. The conditions noted are these: PathHunter CHO-K1 cells overexpressing human MR; aldosterone about 0.3 nM; 6 hours at 37° C.; luminescence; read-out: Primary Assay IP rating (IP = inflection point for a given dose-response titration curve). It counts as cell-based. An excerpt: The activity of the compounds of the present invention regarding mineralocorticoid receptor antagonism can be evaluated using the following assay.
Assessment of MR Potency in HMR NH Pro Assay
The human MR NH Pro assay is a commercially available PathHunter™ Protein:Protein interaction assay (DiscoveRx; http://www.discoverx.com/nhrs/prod-nhrs.php) that measures the ability of compounds to antagonize full-length human Mineralocorticoid Receptor (MR) binding to a coactivator peptide.
6. Test compounds are titrated starting at 4.4 mM, 10-point titration in 1:3 dilution.
3. Add 5 μL 6× agonist (final aldosterone concentration should be about 0.3 nM to about 1.0 nM) to all wells (using the PlateMate Plus.)
• (ThermoFisher) (except those wells in columns 23 and 24) 4. Add 5 uL of assay media to all wells in column 23 and 24. 5. Incubate 6 hrs at 37° C., 5% CO2. 6. Add 15 uL 3× DiscoveRx detection reagent to each well. 7. Incubate 1 hour at room temperature (keep plates stored in the dark). 8. Read plates on Envision (PerkinElmer) luminesence plate reader and analyze using ADA.
`CCC(C=C(C)C#N)(c1ccc(Cl)cc1)n1ccc2c(NS(C)(=O)=O)cccc21` (mixture of isomers) [Compound 131, N-(1-(3-(4-chlorophenyl)-5-cyanohex-4-en-3-yl)-1H-indol-4-yl)methanesulfonamide]: the IC50 was < 100 nM.

For the molecule `CCC(CO)(c1ccc(Cl)cc1)n1ncc2c(NS(C)(=O)=O)cccc21` (single isomer, unassigned) [Compound 88, N-(1-(2-(4-chlorophenyl)-1-hydroxybutan-2-yl)-1H-indazol-4-yl)methanesulfonamide], the IC50 is < 100 nM.

On to `CCC(c1ccc(Cl)cc1)(n1ccc2c(NS(C)(=O)=O)cc(F)cc21)C(C)(C)O` (single isomer, unassigned) [Compound 90, N-(1-(3-(4-chlorophenyl)-2-hydroxy-2-methylpentan-3-yl)-6-fluoro-1H-indol-4-yl)methane sulfonamide], for which the IC50 is < 100 nM.

Regarding `CCC(c1ccc(Cl)cc1)(n1ccc2c(NS(C)(=O)=O)cccc21)C(C)(C)O` (single isomer, unassigned) [Compound 91, N-(1-(3-(4-chlorophenyl)-2-hydroxy-2-methylpentan-3-yl)-1H-indol-4-yl)methane sulfonamide], the IC50 was < 100 nM.

Take `CCC(c1ccc(Cl)cc1)(n1ncc2c(NS(C)(=O)=O)cccc21)C(C)(C)O` (single isomer, unassigned) [Compound 92, N-(1-(3-(4-chlorophenyl)-2-hydroxy-2-methylpentan-3-yl)-1H-indazol-4-yl)methane sulfonamide]: the IC50 was < 100 nM.

As to `CCC(c1ccc(C(F)(F)F)cc1)(n1ncc2c(NS(C)(=O)=O)cccc21)C(C)(C)O` (single isomer, unassigned) [Compound 93, N-(1-(2-hydroxy-2-methyl-3-(4-(trifluoromethyl)phenyl)pentan-3-yl)-1H-indazol-4-yl)methane sulfonamide], the IC50 is < 100 nM.

On to `CCC(COC)(c1ccc(Cl)cc1)n1ccc2c(NS(C)(=O)=O)cccc21` (single isomer, unassigned) [Compound 96, N-(1-(2-(4-chlorophenyl)-1-methoxybutan-2-yl)-1H-indol-4-yl)methanesulfonamide], for which the IC50 was < 100 nM.

On to `CCC(COC)(c1ccc(Cl)cc1)n1ncc2c(NS(C)(=O)=O)cccc21` (single isomer, unassigned) [Compound 97, N-(1-(2-(4-chlorophenyl)-1-methoxybutan-2-yl)-1H-indazol-4-yl)methanesulfonamide], for which the IC50 is < 100 nM.

Take `CCC(C(C)=O)(c1ccc(Cl)cc1)n1ncc2c(NS(C)(=O)=O)cccc21` (single isomer, unassigned) [Compound 100, N-(1-(3-(4-chlorophenyl)-2-oxopentan-3-yl)-1H-indazol-4-yl)methanesulfonamide]: the IC50 was < 100 nM.

Turning to `CCC(C(C)=O)(c1ccc(Cl)cc1)n1ncc2c(NS(C)(=O)=O)cccc21` (single isomer, unassigned) [Compound 101, N-(1-(3-(4-chlorophenyl)-2-oxopentan-3-yl)-1H-indazol-4-yl)methanesulfonamide], the IC50 was 100 to 500 nM.

For `CCC(C(C)=O)(c1ccc(C(F)(F)F)cc1)n1ccc2c(NS(C)(=O)=O)cccc21` (single isomer, unassigned) [Compound 102, N-(1-(2-oxo-3-(4-(trifluoromethyl)phenyl)pentan-3-yl)-1H-indol-4-yl)methanesulfonamide], the IC50 is 100 to 500 nM.

Take `CCC(C(C)=O)(c1ccc(C(F)(F)F)cc1)n1ccc2c(NS(C)(=O)=O)cccc21` (single isomer, unassigned) [Compound 103, N-(1-(2-oxo-3-(4-(trifluoromethyl)phenyl)pentan-3-yl)-1H-indol-4-yl)methanesulfonamide]: the IC50 was in the range of 100 to 500 nM.

In the case of `CCC(C(C)=O)(c1ccc(C(F)(F)F)cc1)n1ncc2c(NS(C)(=O)=O)cccc21` (single isomer, unassigned) [Compound 104, N-(1-(2-oxo-3-(4-(trifluoromethyl)phenyl)pentan-3-yl)-1H-indazol-4-yl)methanesulfonamide], the IC50 was 100 to 500 nM.

For the molecule `CCC(c1ccc(Cl)cc1)(C(C)O)n1ncc2c(NS(C)(=O)=O)cccc21` (single isomer, unassigned) [Compound 106], the IC50 was < 100 nM.

Consider `CCC(c1ccc(Cl)cc1)(C(C)O)n1ncc2c(NS(C)(=O)=O)cccc21` (single isomer, unassigned) [Compound 107], for which the IC50 is < 100 nM.

For the molecule `CCC(c1ccc(Cl)cc1)(C(C)O)n1ccc2c(NS(C)(=O)=O)cccc21` (single isomer, unassigned) [Compound 108, N-(1-(3-(4-chlorophenyl)-2-hydroxypentan-3-yl)-1H-indol-4-yl)methanesulfonamide], the IC50 was < 100 nM.

For `CCC(c1ccc(Cl)cc1)(C(C)O)n1ccc2c(NS(C)(=O)=O)cccc21` (single isomer, unassigned) [Compound 109, N-(1-(3-(4-chlorophenyl)-2-hydroxypentan-3-yl)-1H-indol-4-yl)methanesulfonamide], the IC50 is < 100 nM.

As to `CCC(c1ccc(Cl)cc1)(C(C)O)n1ccc2c(NS(C)(=O)=O)cc(F)cc21` (single isomer, unassigned) [Compound 111, N-(1-(3-(4-chlorophenyl)-2-hydroxypentan-3-yl)-6-fluoro-1H-indol-4-yl)methanesulfonamide], the IC50 was < 100 nM.

`CCC(c1ccc(C(F)(F)F)cc1)(C(C)O)n1ccc2c(NS(C)(=O)=O)cccc21` (single isomer, unassigned) [Compound 113, N-(1-(2-hydroxy-3-(4-(trifluoromethyl)phenyl)pentan-3-yl)-1H-indol-4-yl)methanesulfonamide]: the IC50 was < 100 nM.

For the molecule `CCC(c1ccc(C(F)(F)F)cc1)(C(C)O)n1ccc2c(NS(C)(=O)=O)cccc21` (single isomer, unassigned) [Compound 114, N-(1-(2-hydroxy-3-(4-(trifluoromethyl)phenyl)pentan-3-yl)-1H-indol-4-yl)methanesulfonamide], the IC50 is < 100 nM.

Regarding `CCC(c1ccc(C(F)(F)F)cc1)(C(C)O)n1ncc2c(NS(C)(=O)=O)cccc21` (single isomer, unassigned) [Compound 115, N-(1-(2-hydroxy-3-(4-(trifluoromethyl)phenyl)pentan-3-yl)-1H-indazol-4-yl)methanesulfonamide], the IC50 was < 100 nM.

Consider `CCC(c1ccc(C(F)(F)F)cc1)(C(C)O)n1ncc2c(NS(C)(=O)=O)cccc21` (single isomer, unassigned) [Compound 116, N-(1-(2-hydroxy-3-(4-(trifluoromethyl)phenyl)pentan-3-yl)-1H-indazol-4-yl)methanesulfonamide], for which the IC50 is < 100 nM.

As for `CCC(c1ccc(C(F)(F)F)cc1)(C(C)O)n1ncc2c(NS(C)(=O)=O)cccc21` (single isomer, unassigned) [Compound 117, N-(1-(2-hydroxy-3-(4-(trifluoromethyl)phenyl)pentan-3-yl)-1H-indazol-4-yl)methanesulfonamide], the IC50 is < 100 nM.

On to `CCC(CC#N)(c1ccc(Cl)cc1)n1ccc2c(NS(C)(=O)=O)cccc21` (single isomer, unassigned) [Compound 121, N-(1-(2-(4-chlorophenyl)-1-cyanobutan-2-yl)-1H-indol-4-yl)methanesulfonamide], for which the IC50 was < 100 nM.

Take `CCC(CC#N)(c1ccc(Cl)cc1)n1ccc2c(NS(C)(=O)=O)cccc21` (single isomer, unassigned) [Compound 122, N-(1-(2-(4-chlorophenyl)-1-cyanobutan-2-yl)-1H-indol-4-yl)methanesulfonamide]: the IC50 is < 100 nM.

Regarding `CCC(CC#N)(c1ccc(Cl)cc1)n1ncc2c(NS(C)(=O)=O)cccc21` (single isomer, unassigned) [Compound 123, N-(1-(2-(4-chlorophenyl)-1-cyanobutan-2-yl)-1H-indazol-4-yl)methanesulfonamide], the IC50 was < 100 nM.
